Assay results taken from article PMC5656653, “Evaluation of Ga-DOTA-(D-Asp)n as bone imaging agents: D-aspartic acid peptides as carriers to bone” (Scientific Reports, 2017).
Where a SMILES comes first, the peptide text is derived from it. [ ]: non-standard residue; d: D form. The star is where a group is joined. DOTA = O=C(O)CN1CCN(CC(=O)O)CCN(CC(=O)*)CCN(CC(=O)O)CC1

Experiment: Biodistribution experiments in normal mice after i.v. injection
Type: in vivo
Details: mouse, in vivo, iv; for tissue uptake dose at 10 min / tissue uptake dose at 1 h / tissue uptake dose at 3 h: male, ddY, total radioactivity, Biodistribution of radioactivity
Description: Experiments with animals were conducted in strict accordance with the Guidelines for the Care and Use of Laboratory Animals of Kanazawa University. The animal experimental protocols used were approved by the Committee on Animal Experimentation of Kanazawa University (Permit Number: AP-132633). Biodistribution experiments were performed after intravenous administration of each diluted tracer solution (37–740 kBq/100 μL) to 6-week-old male ddY mice (27–32 g, Japan SLC, Inc., Hamamatsu, Japan). Four or five mice at each time point after the administration of each compound were sacrificed by decapitation at 10, 60, and 180 min post-injection. Tissues of interest were taken and weighed. Complete left femurs were isolated as representative bone samples, radioactivity was determined using gamma counters (AccuFLEX γ ARC-8001 in the case of ^18F, Hitachi, Ltd.), and background counts and physical decay were corrected during counting.

tissue uptake dose at 10 min (Blood): 1.94 %ID
tissue uptake dose at 1 h (Blood): 0.33 %ID
tissue uptake dose at 3 h (Blood): 0.13 %ID
tissue uptake dose at 10 min (Bone (Femur)): 9.86 %ID
tissue uptake dose at 1 h (Bone (Femur)): 11.6 %ID
tissue uptake dose at 3 h (Bone (Femur)): 12.5 %ID
tissue uptake dose at 10 min (Brain): 0.05 %ID
tissue uptake dose at 1 h (Brain): 0.01 %ID
tissue uptake dose at 3 h (Brain): 0.01 %ID
tissue uptake dose at 10 min (Heart): 0.63 %ID
tissue uptake dose at 1 h (Heart): 0.14 %ID
tissue uptake dose at 3 h (Heart): 0.05 %ID
tissue uptake dose at 10 min (Kidney): 12.8 %ID
tissue uptake dose at 1 h (Kidney): 2.49 %ID
tissue uptake dose at 3 h (Kidney): 1.23 %ID
tissue uptake dose at 10 min (Large-intestine): 0.26 %ID
tissue uptake dose at 1 h (Large-intestine): 0.05 %ID
tissue uptake dose at 3 h (Large-intestine): 0.08 %ID
tissue uptake dose at 10 min (Liver): 0.46 %ID
tissue uptake dose at 1 h (Liver): 0.14 %ID
tissue uptake dose at 3 h (Liver): 0.11 %ID
tissue uptake dose at 10 min (Lung): 1.34 %ID
tissue uptake dose at 1 h (Lung): 0.26 %ID
tissue uptake dose at 3 h (Lung): 0.1 %ID
tissue uptake dose at 10 min (Muscle): 0.57 %ID
tissue uptake dose at 1 h (Muscle): 0.15 %ID
tissue uptake dose at 3 h (Muscle): 0.14 %ID
tissue uptake dose at 10 min (Pancreas): 0.57 %ID
tissue uptake dose at 1 h (Pancreas): 0.11 %ID
tissue uptake dose at 3 h (Pancreas): 0.08 %ID
tissue uptake dose at 10 min (Small-intestine): 0.39 %ID
tissue uptake dose at 1 h (Small-intestine): 0.13 %ID
tissue uptake dose at 3 h (Small-intestine): 0.1 %ID
tissue uptake dose at 10 min (Spleen): 0.42 %ID
tissue uptake dose at 1 h (Spleen): 0.16 %ID
tissue uptake dose at 3 h (Spleen): 0.09 %ID
tissue uptake dose at 10 min (Stomach): 0.34 %ID
tissue uptake dose at 1 h (Stomach): 0.04 %ID
tissue uptake dose at 3 h (Stomach): 0.1 %ID
SMILES: O=C(O)C[C@@H](NC(=O)[C@@H](CC(=O)O)NC(=O)[C@@H](CC(=O)O)NC(=O)[C@@H](CC(=O)O)NC(=O)[C@@H](CC(=O)O)NC(=O)[C@@H](CC(=O)O)NC(=O)[C@@H](CC(=O)O)NC(=O)[C@@H](CC(=O)O)NC(=O)CN1CCN(CC(=O)O)CCN(CC(=O)O)CCN(CC(=O)O)CC1)C(=O)O [^67Ga-DOTA-(D-Asp)8, metal not drawn] ({DOTA}-[dD][dD][dD][dD][dD][dD][dD][dD]-OH)
Accumulation of radioactivity in bone (in words): high accumulation and retention of radioactivity in bone
